Measurements from US6380248B1, “Metal-thiols as immunomodulating agents” (Winthrop University Hospital, priority 1998, dated 2002).
Where two headings read alike, the source gives them in different places.

What was measured:
bacteria = assay: Antibacterial activity of bismuth-thiols; type: cell-based; settings: for antibacterial / antimicrobial activity in words: comparison between bismuth-thiols
IL-1α = assay: Serum cytokine levels in CLP mice treated with BisEDT; type: in vivo; settings: BisEDT 1:2 (Bismuth 20 μg/kg BW) tail vein 5 h after CLP, sacrificed 18 h after injection
[1] = system: CLP mice (sepsis induced by cecal ligation and perforation); assay: Survival of septic mice (cecal ligation and perforation, CLP) treated with BisEDT; type: in vivo
Procedure: In the absence of any treatment, mortality rate is greater than 90% within 18-72 hours.
The object was to determine if Bismuth-ethanedithiol (BisEDT) in a molar ratio of 1:2, would protect CLP mice. Mortality rate of greater than 90% is observed within 18-72 hours in this model. A dose response study was performed to determine an optimal dose of BisEDT. […] Data were analyzed using Chi-Square and Krumkal Walkis tests. The data are presented below as average ±SEM. Data compared to control (dose 0) were considered significant (*) at p<0.05.

TGFβ1 = assay: Serum cytokine levels in CLP mice treated with BisEDT; type: in vivo; settings: BisEDT 1:2 (Bismuth 20 μg/kg BW) tail vein 5 h after CLP, sacrificed 18 h after injection
mice [2] = assay: Toxicity / lethality to mice; settings: mouse, in vivo
IL-10 [3] = assay: Serum cytokine levels in CLP mice treated with BisEDT; type: in vivo; settings: BisEDT 1:2 (Bismuth 20 μg/kg BW) tail vein 5 h after CLP, sacrificed 18 h after injection
TNFα = assay: as above; type: in vivo; settings: BisEDT 1:2 (Bismuth 20 μg/kg BW) tail vein 5 h after CLP, sacrificed 18 h after injection, * p<0.05
mice [4] = settings: according to MSDS sheets from Aldrich Chemical Company; cited from earlier work
[5] = system: pro- and anti-inflammatory cytokines; assay: Polymicrobial sepsis induced up-regulation of cytokines in mice; settings: mouse, in vivo
[6] = system: macrophages/monocytes from CLP mice; type: in vivo
[7] = Stability of the bismuth-thiol compound; type: physicochemical; settings: compared to bismuth:dimercaprol
IL-10 [8] = type: in vivo, mice
[9] = repeat study, Injection Once a Day, dose 2 ug/kg BW, * p<0.05
[10] = repeat study, Injection Once a Day, dose 200 ug/kg BW
[11] = repeat study, Injection Twice a Day, dose 2 ug/kg BW, * p<0.05
[12] = repeat study, Injection Twice a Day, dose 200 ug/kg BW

Compound: CC(O)C(C)S (centres unmarked) [3-mercapto-2-butanol]
- amount of thiol required relative to dimercaprol to achieve similar inhibitory activity (bacteria; in combination with bismuth): Approximately 3 times

Compound: SCCCCS.[Bi] [Bismuth-1,4-butanedithiol]
- less antibacterial activity (compared with vicinal dithiols Bismuth-2,3-BDT / bismuth:ethanedithiol) (bacteria): ~100 fold

Compound: O=S(=O)(O)CC(S)CS (centres unmarked) [dimercaptopropane-1-sulfonic acid, reference compound]
- antibacterial synergy of the thiol with bismuth (bacteria): did not show antibacterial synergy

Compound: Bismuth-2,3-BDT (2,3-butanedithiol)
- antibacterial / antimicrobial activity in words (bacteria): as good as bismuth:ethanedithiol

Compound: Bismuth-ethanedithiol [BisEDT]
- Serum IL-1α level (IL-1α): 10.5 ± 1.1 pg/mL
- Survival ([1]; dose 2 ug/kg BW via tail vein once a day for three days, observed 8 days, average ±SEM, dose response study): 64 ± 43 h
- Survival (%) ([1]; dose 2 ug/kg BW via tail vein once a day for three days, observed 8 days, dose response study): 20%
- Survival (hrs.) ([1]; dose 20 ug/kg BW via tail vein once a day for three days, average ±SEM, dose response study, * p<0.05 vs dose 0): 110 ± 35* hrs.
- Survival (%) ([1]; dose 20 ug/kg BW via tail vein once a day for three days, dose response study, * p<0.05 vs dose 0): 60* %
- Survival ([1]; dose 200 ug/kg BW via tail vein once a day for three days, average ±SEM, dose response study): 75 ± 21 h
- Survival (%) ([1]; dose 200 ug/kg BW via tail vein once a day for three days, dose response study): 40%
- Survival ([1]; dose 2000 ug/kg BW via tail vein once a day for three days, average ±SEM, dose response study): 48 ± 24 h
- Survival (%) ([1]; dose 2000 ug/kg BW via tail vein once a day for three days, dose response study): 20%
- effect on survival ([1]; dose of 20 μg/kg body weight): significantly increase survival
- effect of increase in dose frequency on survival ([1]; once daily to twice daily, P=0.73): did not increase survival
- Survival (%) [1, 9]: 56* %
- Survival (hrs.) [1, 9]: 109 ± 29* hrs.
- Survival [1, 10]: 75 ± 21 h
- Survival (%) [1, 10]: 40%
- Survival (%) [1, 11]: 44* %
- Survival (hrs.) [1, 11]: 103 ± 29* hrs.
- Survival [1, 12]: 97 ± 40 h
- Survival (%) [1, 12]: 40%
- percentage survival, overall ([1]; treatment group versus 0% (control), summary of Example 1): 60%
- survivability, overall ([1]; with treatment versus approximately 36 hours without treatment, summary of Example 1): 108 h
- Serum TGFβ1 level (TGFβ1): 24.8 ± 3.6 pg/mL
- toxicity compared to bismuth:dimercaprol (mice [2]): no more toxic
- Serum IL-10 level (IL-10 [3]): 165 ± 69 pg/mL
- antibacterial / antimicrobial activity in words (bacteria): stronger antimicrobial agent than bismuth:dimercaprol
- Serum TNFα level (TNFα): 13.7 ± 2.9* pg/ml
- lethality to mice (mice [4]): very similar to that of dimercaprol
- prevention of sepsis induced up-regulation of pro- and anti-inflammatory cytokines [5]: able to prevent the polymicrobial sepsis induced up-regulation of both pro- and anti-inflammatory cytokines
- amounts of superoxide, H2O2 and NO2- produced by macrophages/monocytes, unstimulated ([6]; from BisEDT-treated CLP mice (Bismuth 20 μg/kg BW), without in vitro stimulation): in between that produced by the control and untreated CLP mice but not significantly different from either of these groups
- release of superoxide, H2O2 and NO2- by macrophages/monocytes, stimulated ([6]; mouse, in vivo): significantly increased
- stability [7]: more stable compound at all molar ratios and pHs
- IL-10 production in vitro by splenic macrophages (IL-10 [8]; from CLP mice treated with BisEDT, unstimulated): do not produce IL-10 in vitro as much as the macrophages from BisEDT untreated CLP animals
- IL-10 release by splenic macrophages, stimulated (IL-10 [8]; mouse, in vivo): did not significantly up-regulate the IL-10 release

Compound: Bismuth:propanedithiol (1,3-propanedithiol)
- antibacterial / antimicrobial activity in words (bacteria): works quite well, but not as well as the vicinal dithiols

Compound: bismuth:2-mercaptoethylamine
- decrease in activity compared with bismuth:β-mercaptoethanol (bacteria; antibacterial activity): 5 fold

Compound: dimercapto-succinic acid [reference compound]
- antibacterial synergy of the thiol with bismuth (bacteria): largely abolished synergy with bismuth
- antibacterial synergy of the thiol with bismuth (bacteria; listed as DMSA): did not show antibacterial synergy
